From publication PMC7136079 (Translational and Clinical Pharmacology, 2020)
Where two headings read alike, the source gives them in different places.

What was measured:
[1] = cited from earlier work; for within-subject variability (coefficient of variation) of Cmax: ref unpublished previous study results

SMILES | Tmax ([1]; 50 mg) | terminal half-life (t1/2) [1] | time at which maximum concentration (Cmax) was attained [1] | pharmacokinetic dose linearity ([1]; dose range of 50–400 mg) | within-subject variability (coefficient of variation) of Cmax ([1]; fasted state, 2016) | within-subject variability (coefficient of variation) of Cmax ([1]; fed state, 2015) | AUCinf geometric mean ratio (90% CI) (fed state, ratio of the FDC to the loose combination) | time to reach Cmax ([1]; extended-release formulations) | Tmax (fed state (high fat meal), given as loose combination gemigliptin 50 mg + metformin XR 1,000 mg, n = 30, median [minimum–maximum]) | Tmax (human, plasma, oral)
N[C@@H](CC(=O)N1CCc2c(nc(C(F)(F)F)nc2C(F)(F)F)C1)CN1CC(F)(F)CCC1=O [Gemigliptin] | approximately 2 hours | 17.1 h | 2 h | linearity | approximately 23.4% | approximately 20.4% | 0.9940 (0.9691–1.0195) |  |  | 
CN(C)C(=N)N=C(N)N [Metformin] |  |  |  |  |  |  |  | 4 to 8 h | 6.00 [4.00–8.03] h | 6.04 h
